Data taken from article PMC9551036, “A selective and orally bioavailable VHL-recruiting PROTAC achieves SMARCA2 degradation in vivo” (Nature Communications, 2022).
Several values for one entry are separate records, joined by “and”; a condition that tells them apart may be missing. Equal entries are not always repeated. Where two headings read alike, the source gives them in different places.

Tests used:
SMARCA4 [1] = molecular target: T1, SMARCA4 (Homo sapiens, UniProt P51532); experiment: SMARCA4 capillary electrophoresis protein assay in RKO cells; assay type: cell-based; set-up: endogenous in cells; host or cells: RKO, HCT116, LU99, HCC-364, HCT-15, HCC4006, SK-N-AS; details: mean ± SD; for Dmax: RKO
T1 sequence (P51532 whole entry): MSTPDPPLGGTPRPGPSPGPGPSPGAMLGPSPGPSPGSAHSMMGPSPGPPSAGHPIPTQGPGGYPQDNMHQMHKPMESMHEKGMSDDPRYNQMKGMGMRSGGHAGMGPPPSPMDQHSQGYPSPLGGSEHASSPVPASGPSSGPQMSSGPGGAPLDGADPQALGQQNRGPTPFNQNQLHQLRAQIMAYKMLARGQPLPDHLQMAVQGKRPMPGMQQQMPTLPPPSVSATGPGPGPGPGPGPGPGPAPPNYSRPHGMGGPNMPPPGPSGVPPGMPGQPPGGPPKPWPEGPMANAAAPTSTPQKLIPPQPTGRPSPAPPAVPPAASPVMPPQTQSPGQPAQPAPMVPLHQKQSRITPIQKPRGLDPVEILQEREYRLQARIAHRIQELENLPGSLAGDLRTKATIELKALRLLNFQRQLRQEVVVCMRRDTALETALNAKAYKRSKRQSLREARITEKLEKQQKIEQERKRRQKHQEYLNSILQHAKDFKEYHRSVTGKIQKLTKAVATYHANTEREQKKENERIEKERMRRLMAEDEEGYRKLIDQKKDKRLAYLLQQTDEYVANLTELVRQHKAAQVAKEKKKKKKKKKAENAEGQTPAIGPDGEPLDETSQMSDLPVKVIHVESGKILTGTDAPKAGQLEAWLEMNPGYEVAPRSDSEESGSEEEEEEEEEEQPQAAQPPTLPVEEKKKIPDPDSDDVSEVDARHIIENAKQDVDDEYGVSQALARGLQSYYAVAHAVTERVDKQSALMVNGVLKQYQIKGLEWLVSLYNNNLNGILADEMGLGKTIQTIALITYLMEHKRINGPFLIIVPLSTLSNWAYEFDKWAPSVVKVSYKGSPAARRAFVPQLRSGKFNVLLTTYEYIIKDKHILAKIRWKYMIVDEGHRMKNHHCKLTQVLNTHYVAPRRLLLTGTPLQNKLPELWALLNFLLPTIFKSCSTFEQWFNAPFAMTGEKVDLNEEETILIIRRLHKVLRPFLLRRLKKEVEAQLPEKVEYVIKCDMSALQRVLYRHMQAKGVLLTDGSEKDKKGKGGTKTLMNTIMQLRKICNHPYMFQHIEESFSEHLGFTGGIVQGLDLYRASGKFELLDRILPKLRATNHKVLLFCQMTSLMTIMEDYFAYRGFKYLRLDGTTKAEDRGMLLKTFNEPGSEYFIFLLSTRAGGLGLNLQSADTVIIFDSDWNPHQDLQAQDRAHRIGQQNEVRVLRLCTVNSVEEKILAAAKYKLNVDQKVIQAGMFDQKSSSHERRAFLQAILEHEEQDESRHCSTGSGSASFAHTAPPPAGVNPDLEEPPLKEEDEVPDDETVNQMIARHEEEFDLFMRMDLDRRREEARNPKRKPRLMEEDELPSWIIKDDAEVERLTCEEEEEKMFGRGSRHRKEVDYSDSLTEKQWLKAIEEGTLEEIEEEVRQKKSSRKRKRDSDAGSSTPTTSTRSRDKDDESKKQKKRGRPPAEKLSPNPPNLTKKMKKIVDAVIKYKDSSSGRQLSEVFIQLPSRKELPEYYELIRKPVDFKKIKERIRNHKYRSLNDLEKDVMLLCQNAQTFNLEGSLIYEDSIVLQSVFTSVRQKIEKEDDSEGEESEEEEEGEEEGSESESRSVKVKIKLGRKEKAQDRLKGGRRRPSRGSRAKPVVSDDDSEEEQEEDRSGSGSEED
Procedure: 130,000–200,000 cells were seeded in 24-well plates and incubated until settled down or overnight. Compounds were dissolved in DMSO and added to cells in indicated concentrations using a digital dispenser following an optional media change. Cells were incubated for 4 or 18 h as indicated. For SMARCA2/4 half-life determination, 150,000 or 200,000 cells were seeded in 24-well plates. The next day, 50 µg/ml cycloheximide (Sigma) was added and cells were incubated for 1–24 h. For SMARCA2/4 re-synthesis measurements, 200,000 cells were seeded in 24-well plates. The next day, 100 nM compound 6 was added for 4 h to degrade SMARCA2/4, and a sample was taken as baseline for normalisation. To allow re-synthesis, a VHL binder (compound 32, 25 or 50 µM) was then added for 3 or 24 h. Medium was removed, cells were washed with PBS and lysed with 80 µl Lysis Buffer (MSD Tris Lysis Buffer (#R60TX-2) + Halt Inhibitor Cocktail (100x) + Benzonase 0.5 µL/ml). Samples were frozen at −80 °C and thawed at room temperature before use. Samples were transferred to a V-bottom plate and insoluble debris was pelleted by centrifugation for 5 min at maximum speed. The supernatant was transferred to a fresh plate. Master Mix and Ladder were prepared according to manufacturer’s instructions for 12–230 kDa Wes Separation Module, 8 × 25 capillary cartridges, Protein Simple #SM-W004 with Anti-Rabbit Detection Module for Wes, Peggy Sue or Sally Sue, Protein Simple #DM-001. 4.8 µl lysate were mixed with 1.2 µl Master Mix to achieve a protein concentration of ~0.5 µg/µl. Antibodies were diluted in Antibody Diluent II (SMARCA2 Sigma #HPA029981 RRID:AB_10602406 1:25–100, SMARCA4 Cell Signalling #49360 clone D1Q7F RRID:AB_2728743 1:15–120 or Abcam #ab110641 clone EPNCIR111A RRID:AB_10861578 1:60, GAPDH Abcam #ab9485 RRID:AB_307275 1:250). Wes plates were prepared and run according to manufacturer’s instructions. Proteins were quantified with accompanying Compass Software. SMARCA2/4 protein levels were normalised to GAPDH. […] Where applicable, curves were fitted using a 4-parametric logistic model.

[2] = molecular target: VCB: PROTAC: SMARCA4^BD ternary complex (Homo sapiens, UniProt P40337+P51532); experiment: TR-FRET ternary complex affinity and cooperativity, SMARCA4; assay type: binding; set-up: P51532, residues 1448–1569 with additional N-terminal SM residues; GST (TEV site) (N); His6 (TEV site) (N, cleaved yes); made in house; host or cells: SMARCA4^BD: Escherichia coli BL21(DE3)
Chain of VCB: PROTAC: SMARCA4^BD ternary complex (P51532 1448-1569): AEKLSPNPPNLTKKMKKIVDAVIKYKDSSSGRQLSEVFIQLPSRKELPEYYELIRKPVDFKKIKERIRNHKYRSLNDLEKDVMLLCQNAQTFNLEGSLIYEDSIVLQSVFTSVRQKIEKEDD
Chain of VCB: PROTAC: SMARCA4^BD ternary complex (P40337 54-213): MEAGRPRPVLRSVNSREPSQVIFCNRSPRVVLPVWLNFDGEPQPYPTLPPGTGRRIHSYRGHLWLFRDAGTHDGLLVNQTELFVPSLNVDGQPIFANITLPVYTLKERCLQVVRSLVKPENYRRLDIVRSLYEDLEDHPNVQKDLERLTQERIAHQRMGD
Chain of VCB: PROTAC: SMARCA4^BD ternary complex (Q15369 17-112 partner): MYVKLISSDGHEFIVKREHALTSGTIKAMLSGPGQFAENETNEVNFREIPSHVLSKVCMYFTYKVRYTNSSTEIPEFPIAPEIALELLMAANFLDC
Chain of VCB: PROTAC: SMARCA4^BD ternary complex (Q15370 1-104 partner): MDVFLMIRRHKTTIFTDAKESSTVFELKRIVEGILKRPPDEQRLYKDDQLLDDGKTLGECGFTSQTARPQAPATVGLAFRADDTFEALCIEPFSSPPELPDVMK

SMARCA4 [3] = molecular target: T1, SMARCA4; experiment: Imaging-based SMARCA4 protein assay in RKO cells; assay type: cell-based; set-up: endogenous in cells; host or cells: RKO, HCT116, LU99, HCC-364, HCT-15, HCC4006, SK-N-AS; details: individual replicates
Procedure: 1250 cells per well in 60 µl medium were plated in flat bottom, poly-lysin coated 384-well plates (CellCarrier Ultra, Perkin Elmer). The next day, test compounds (10 µl of serial dilutions) and DMSO controls were diluted in DMEM medium such that the final DMSO content was <1% or were added using an ultrasound dispensing system. 4 wells were reserved for a background measurement. […] After aspirating the fixing solution, the cells were washed once with 25 µl PBS. 25 µl of blocking buffer (10% goat serum in PBS) was added and cells were incubated for 30 min, then washed once with PBS. Cells were stained with 20 µl of SMARCA2/4 primary antibody solution (Sigma #HPA029981 RRID:AB_10602406 1:1000 or Cell Signalling #52251 clone E9O6 RRID:AB_2799410 1:1000 in PBS with 10% FCS) for 2–4 h at room temperature. Cells were again washed once with PBS. […] The cell layer was then washed once with 25 µl PBS, the wells were filled with 25 µl PBS and the plates were sealed with an adhesive sheet. They were then imaged on the Opera Phoenix (mean intensity in the nucleus). Results were computed as percent of controls ((value of test compound − background)/(value of the negative control DMSO—background) multiplied by 100). EC50 values were computed using a 4-parametric logistic model.

[4] = molecular target: T2, VCB: PROTAC: SMARCA2^BD ternary complex (Homo sapiens, UniProt P51531); experiment: TR-FRET ternary complex affinity and cooperativity, SMARCA2; assay type: binding
T2 construct: P51531-2, residues 1373-1493 with additional N-terminal SM residues; GST (TEV site) (N); His6 (TEV site) (N, cleaved yes); made in house; host or cells: SMARCA2^BD: Escherichia coli BL21(DE3)
T2 sequence (P51531 with tags, fused parts or gaps isoform P51531-2): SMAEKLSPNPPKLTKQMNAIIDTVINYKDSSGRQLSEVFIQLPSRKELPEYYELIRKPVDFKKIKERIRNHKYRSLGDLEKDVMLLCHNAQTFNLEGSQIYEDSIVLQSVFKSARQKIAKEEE

[5] = molecular target: T3, (Homo sapiens, UniProt P51532); experiment: TR-FRET ternary complex affinity and cooperativity, SMARCA4; assay type: binding
T3 construct: P51532, residues 1448–1569 with additional N-terminal SM residues; GST (TEV site) (N); His6 (TEV site) (N, cleaved yes); made in house; host or cells: SMARCA4^BD: Escherichia coli BL21(DE3)
T3 sequence (P51532 1448-1569): as the sequence (P51532 1448-1569) above

[6] = PROTAC + VCB, individual replicates, read-out: Ternary SMARCA4 BD EC50 (PROTAC + VCB)
[7] = TR-FRET competition for SMARCA4BD, + VCB, mean ± SD, read-out: TR-FRET Ternary SMARCA4BD EC50 (PROTAC + VCB)
[8] = 4h, read-out: RKO (4h) SMARCA4 DC50
[9] = 18h, read-out: RKO (18h) SMARCA4 DC50
[10] = TR-FRET competition for SMARCA2BD, without VCB, mean ± SD, read-out: TR-FRET SMARCA2BD EC50
[11] = binary, PROTAC alone, individual replicates, read-out: SMARCA2 BD EC50
[12] = TR-FRET competition for SMARCA4BD, without VCB, mean ± SD, read-out: TR-FRET SMARCA4BD EC50
[13] = binary, PROTAC alone, individual replicates, read-out: SMARCA4 BD EC50

Structure (SMILES)	DC50 (SMARCA4 [1]; RKO (4 h))	DC50 (SMARCA4 [1]; RKO (18 h))	Dmax (SMARCA4 [1]; RKO (4 h))	Dmax (SMARCA4 [1]; RKO (18 h))	EC50 [2, 6]	EC50 [2, 7]	DC50 (SMARCA4 [3]; [8])	DC50 (SMARCA4 [3]; [9])	EC50 [4, 10]	EC50 [4, 11]	EC50 [5, 12]	EC50 [5, 13]
Cc1ncsc1-c1ccc([C@H](COC(C)CN2CCC(c3ccc4c(c3)n(C3CCCC3)c3nc(=O)c5c(Br)cccc5n43)CC2)NC(=O)[C@@H]2C[C@@H](O)CN2C(=O)[C@@H](NC(=O)C2(N(C)C)CC2)C(C)(C)C)cc1 (some centres unmarked) [compound 10]	83 ± 22 nM	174 ± 72 nM	34 ± 6%	68 ± 15%	69.6 nM and 88.2 nM and 77.2 nM and 49.4 nM	70 ± 16 nM	> 25000 nM	103 nM and 218 nM and 235 nM	150 ± 52 nM	120 nM and 130 nM and 128 nM and 228 nM and 217 nM and 116 nM	191 ± 85 nM	108 nM and 250 nM and 259 nM
Nc1cccc2c1c(=O)nc1n(C3CCCC3)c3ccccc3n21 [compound 2]	> 25000 nM	> 25000 nM	–	–	2270 nM and 2610 nM and 2110 nM	2320 nM	2.7 µM and > 25 µM (2×)	> 25000 nM	1770 nM	1620 nM and 1970 nM and 1530 nM and 2040 nM	2400 nM	2340 nM and 2880 nM and 2050 nM
Cc1ncsc1-c1ccc(CNC(=O)[C@@H]2C[C@H](O)CN2C(=O)[C@@H](NC(=O)C2(F)CC2)C(C)(C)C)c(OCCN2CCC(c3ccc4c(c3)n(C3CCCC3)c3nc(=O)c5c(Br)cccc5n43)CC2)c1 [compound 19]	> 25000 nM	> 25000 nM	–	–	201 nM and 160 nM and 159 nM	173 ± 19 nM	> 25000 nM	> 25000 nM	85 ± 7 nM	79.1 nM and 82 nM and 94.2 nM	158 ± 27 nM	194 nM and 151 nM and 129 nM
